Assay results taken from ChEMBL document CHEMBL1143762, “CP5484, a novel quaternary carbapenem with potent anti-MRSA activity and reduced toxicity” (Bioorg Med Chem, 2007).
Converted amounts (≈) assume the structure as drawn.

Key:
Staphylococcus aureus [1] = test: Antibacterial activity against Staphylococcus aureus 209P JC1; assay type: functional
Staphylococcus aureus [2] = test: Antibacterial activity against methicillin-resistant Staphylococcus aureus M126; assay type: functional
Staphylococcus aureus [3] = test: Antibacterial activity against carbapenem-resistant Staphylococcus aureus M126 HR; assay type: functional
Mus musculus = test: Acute toxicity in iv dosed ICR mouse assessed as mortality after 24 hrs; assay type: organism-based; settings: in vivo
Staphylococcus aureus [4] = test: Antibacterial activity against methicillin-resistant Staphylococcus aureus; assay type: functional
Staphylococcus aureus [5] = test: Antibacterial activity against methicillin-resistant Staphylococcus aureus MF126; assay type: functional
Staphylococcus aureus [6] = test: Protective effect against methicillin-resistant Staphylococcus aureus MF126 systemic infection in ICR mouse dosed sc twice a day; assay type: functional
Staphylococcus aureus [7] = test: Antibacterial activity against penicillin-resistant Staphylococcus aureus PRC9; assay type: functional
Escherichia coli = test: Antibacterial activity against Escherichia coli NIHJ JC2; assay type: functional
Klebsiella pneumoniae = test: Antibacterial activity against Klebsiella pneumoniae PCI602; assay type: functional
Moraxella catarrhalis = test: Antibacterial activity against Moraxella catarrhalis W-0500; assay type: functional
Haemophilus influenzae = test: Antibacterial activity against beta lactamase positive amoxicillin/clavulanic acid-resistant Haemophilus influenzae PRC44; assay type: functional
Pseudomonas aeruginosa = test: Antibacterial activity against Pseudomonas aeruginosa PAO1; assay type: functional
[8] = Half life in mouse at 20 mg/kg, iv administered with 10 mg/kg cilastatin; assay type: ADME, organism-based; settings: in vivo
[9] = AUC (0-infinity) in mouse at 20 mg/kg, iv administered with 10 mg/kg cilastatin; assay type: ADME, organism-based; design: dose 20 mg/kg, route intravenous, time infinity; settings: plasma
[10] = Total clearance in mouse at 20 mg/kg, iv administered with 10 mg/kg cilastatin; assay type: ADME, organism-based; settings: in vivo
[11] = Volume of distribution at steady state in mouse at 20 mg/kg, iv administered with 10 mg/kg cilastatin; assay type: ADME, organism-based; settings: in vivo, read-out: Vss
[12] = Urinary excretion of compound in mouse at 20 mg/kg, iv administered with 10 mg/kg cilastatin; assay type: ADME, organism-based; settings: urine, read-out: Activity
Serum [13] = test: Protein binding in mouse serum by equilibrium dialysis method; assay type: ADME, cell-free
Serum [14] = test: Protein binding in human serum by equilibrium dialysis method; assay type: ADME, cell-free

Row | Compound | MIC (Staphylococcus aureus [1]) [µg/mL] | MIC (Staphylococcus aureus [2]) [µg/mL] | MIC (Staphylococcus aureus [3]) [µg/mL] | MLD (Mus musculus) [mg/kg] | other results
1 | CSc1c2sc(C3=C(C(=O)[O-])N4C(=O)[C@H]([C@@H](C)O)[C@H]4[C@H]3C)cn2c[n+]1CCCCN | < 0.006 | 0.78 (≈ 1.73 µM) | 1.56 (≈ 3.46 µM) |  | 
2 | CSc1c2sc(C3=C(C(=O)[O-])N4C(=O)[C@H]([C@@H](C)O)[C@H]4[C@H]3C)cn2c[n+]1CCCSC(=N)N | < 0.006 | 0.39 (≈ 0.787 µM) | 1.56 (≈ 3.15 µM) | 250 | 
3 | CSc1c2sc(C3=C(C(=O)[O-])N4C(=O)[C@H]([C@@H](C)O)[C@H]4[C@H]3C)cn2c[n+]1CC(N)=O | < 0.006 | 1.56 (≈ 3.57 µM) | 3.13 (≈ 7.17 µM) |  | 
4 | CSc1c2sc(C3=C(C(=O)[O-])N4C(=O)[C@H]([C@@H](C)O)[C@H]4[C@H]3C)cn2c[n+]1[C@H]1CCNC1 | < 0.006 | 0.78 (≈ 1.74 µM) | 1.56 (≈ 3.48 µM) | 500 | 
5 | CSc1c2sc(C3=C(C(=O)[O-])N4C(=O)[C@H]([C@@H](C)O)[C@H]4[C@H]3C)cn2c[n+]1CCCN | < 0.006 | 0.78 (≈ 1.79 µM) | 1.56 (≈ 3.57 µM) | 250 | 
6 | CN[C@H](CC(C)C)C(=O)N[C@H]1C(=O)N[C@@H](CC(N)=O)C(=O)N[C@H]2C(=O)N[C@H]3C(=O)N[C@H](C(=O)N[C@H](C(=O)O)c4cc(O)cc(O)c4-c4cc3ccc4O)[C@H](O)c3ccc(c(Cl)c3)Oc3cc2cc(c3O[C@@H]2O[C@H](CO)[C@@H](O)[C@H](O)[C@H]2O[C@H]2C[C@](C)(N)[C@H](O)[C@H](C)O2)Oc2ccc(cc2Cl)[C@H]1O [VANCOMYCIN] | 0.78 (≈ 0.538 µM) | 1.56 (≈ 1.08 µM) | 1.56 (≈ 1.08 µM) |  | MIC50 (Staphylococcus aureus [4]): 1.56 µg/mL (≈ 1.08 µM); MIC90 (Staphylococcus aureus [4]): 1.56 µg/mL (≈ 1.08 µM); MIC (Staphylococcus aureus [5]): 0.78 µg/mL (≈ 0.538 µM); ED50 (Staphylococcus aureus [6]): 0.18 mg
7 | CO[C@H](CN)C[n+]1cn2cc(C3=C(C(=O)[O-])N4C(=O)[C@H]([C@@H](C)O)[C@H]4[C@H]3C)sc2c1SC | < 0.006 | 0.78 (≈ 1.67 µM) | 3.13 (≈ 6.71 µM) | > 500 | 
8 | CSc1c2sc(C3=C(C(=O)[O-])N4C(=O)[C@H]([C@@H](C)O)[C@H]4[C@H]3C)cn2c[n+]1[C@@H]1CN[C@H](C(=O)N(C)C)C1 | 0.025 (≈ 0.0481 µM) | 3.13 (≈ 6.02 µM) | 6.25 (≈ 12 µM) |  | 
9 | CSc1c2sc(C3=C(C(=O)[O-])N4C(=O)[C@H]([C@@H](C)O)[C@H]4[C@H]3C)cn2c[n+]1C[C@@H](CN)OCF | < 0.006 | 0.78 (≈ 1.61 µM) | 3.13 (≈ 6.46 µM) | 500 | 
10 | C[C@@H](O)[C@H]1C(=O)N2C(C(=O)O)=C(SCCNC=N)C[C@H]12 [IMIPENEM ANHYDROUS] | 0.013 (≈ 0.0434 µM) | 25 (≈ 83.5 µM) | 100 (≈ 334 µM) |  | MIC (Staphylococcus aureus [7]): 0.39 µg/mL (≈ 1.3 µM); MIC (Escherichia coli): 0.1 µg/mL (≈ 0.334 µM); MIC (Klebsiella pneumoniae): 0.39 µg/mL (≈ 1.3 µM); MIC (Moraxella catarrhalis): 0.05 µg/mL (≈ 0.167 µM); MIC (Haemophilus influenzae): 3.13 µg/mL; MIC (Pseudomonas aeruginosa): 1.56 µg/mL (≈ 5.21 µM)
11 | CSc1c2sc(C3=C(C(=O)[O-])N4C(=O)[C@H]([C@@H](C)O)[C@H]4[C@H]3C)cn2c[n+]1CCCNC(C)=N | < 0.006 | 0.78 (≈ 1.63 µM) | 3.13 (≈ 6.55 µM) |  | 
12 | COC(=O)[C@@H]1C[C@H]([n+]2cn3cc(C4=C(C(=O)[O-])N5C(=O)[C@H]([C@@H](C)O)[C@H]5[C@H]4C)sc3c2SC)CN1 | 0.013 (≈ 0.0257 µM) | 1.56 (≈ 3.08 µM) | 6.25 (≈ 12.3 µM) |  | 
13 | CSc1c2sc(C3=C(C(=O)[O-])N4C(=O)[C@H]([C@@H](C)O)[C@H]4[C@H]3C)cn2c[n+]1C[C@@H]1CCCN1 | < 0.006 | 0.78 (≈ 1.69 µM) | 3.13 (≈ 6.77 µM) |  | 
14 | CSc1c2sc(C3=C(C(=O)[O-])N4C(=O)[C@H]([C@@H](C)O)[C@H]4[C@H]3C)cn2c[n+]1C[C@H](C)CN | < 0.006 | 0.78 (≈ 1.73 µM) | 1.56 (≈ 3.46 µM) | 500 | 
15 | CSc1c2sc(C3=C(C(=O)[O-])N4C(=O)[C@H]([C@@H](C)O)[C@H]4[C@H]3C)cn2c[n+]1CCSCCN | < 0.006 | 0.39 (≈ 0.808 µM) | 1.56 (≈ 3.23 µM) |  | 
16 | CSc1c2sc(C3=C(C(=O)[O-])N4C(=O)[C@H]([C@@H](C)O)[C@H]4[C@H]3C)cn2c[n+]1[C@@H]1CN[C@H](C(=O)O)C1 | 0.025 (≈ 0.0508 µM) | 3.13 (≈ 6.35 µM) | 6.25 (≈ 12.7 µM) |  | 
17 | CSc1c2sc(C3=C(C(=O)[O-])N4C(=O)[C@H]([C@@H](C)O)[C@H]4[C@H]3C)cn2c[n+]1Cc1cccc(CSC(=N)N)c1 | < 0.006 | 0.39 (≈ 0.699 µM) | 0.78 (≈ 1.4 µM) | 250 | 
18 | CSc1c2sc(C3=C(C(=O)[O-])N4C(=O)[C@H]([C@@H](C)O)[C@H]4[C@H]3C)cn2c[n+]1CCCCCCN | < 0.006 | 0.78 (≈ 1.63 µM) | 1.56 (≈ 3.26 µM) | 250 | 
19 | CSc1c2sc(C3=C(C(=O)[O-])N4C(=O)[C@H]([C@@H](C)O)[C@H]4[C@H]3C)cn2c[n+]1C1CCNCC1 | 0.013 (≈ 0.0281 µM) | 1.56 (≈ 3.37 µM) | 3.13 (≈ 6.77 µM) |  | 
20 | CSc1c2sc(C3=C(C(=O)[O-])N4C(=O)[C@H]([C@@H](C)O)[C@H]4[C@H]3C)cn2c[n+]1CCN | < 0.006 | 0.78 (≈ 1.85 µM) | 3.13 (≈ 7.41 µM) | 500 | 
21 | CSc1c2sc(C3=C(C(=O)[O-])N4C(=O)[C@H]([C@@H](C)O)[C@H]4[C@H]3C)cn2c[n+]1[C@H]1CCN(C(C)=N)C1 | < 0.006 | 1.56 (≈ 3.19 µM) | 3.13 (≈ 6.39 µM) |  | 
22 | CSc1c2sc(C3=C(C(=O)[O-])N4C(=O)[C@H]([C@@H](C)O)[C@H]4[C@H]3C)cn2c[n+]1C[C@H](O)CN | < 0.006 | 0.78 (≈ 1.72 µM) | 1.56 (≈ 3.45 µM) | > 500 | MIC (Staphylococcus aureus [7]): 0.05 µg/mL (≈ 0.11 µM); MIC (Escherichia coli): 0.05 µg/mL (≈ 0.11 µM); MIC (Klebsiella pneumoniae): 0.1 µg/mL (≈ 0.221 µM); MIC (Moraxella catarrhalis): 0.05 µg/mL (≈ 0.11 µM); MIC (Haemophilus influenzae): 0.78 µg/mL; MIC (Pseudomonas aeruginosa): 6.25 µg/mL (≈ 13.8 µM); MIC50 (Staphylococcus aureus [4]): 0.78 µg/mL (≈ 1.72 µM); MIC90 (Staphylococcus aureus [4]): 1.56 µg/mL (≈ 3.45 µM); MIC (Staphylococcus aureus [5]): 1.56 µg/mL (≈ 3.45 µM); ED50 (Staphylococcus aureus [6]): 0.039 mg; half-life [8]: 13.4 min; AUC(0-inf) [9]: 12600 ng·h/mL; clearance [10]: 26.8 mL/min/kg; Vd [11]: 0.34 L/kg; dose excreted [12]: 41.9%; Activity (Serum [13]): 16%; Activity (Serum [14]): 12.2%
23 | CSc1c2sc(C3=C(C(=O)[O-])N4C(=O)[C@H]([C@@H](C)O)[C@H]4[C@H]3C)cn2c[n+]1CCCNC=N | < 0.006 | 0.78 (≈ 1.68 µM) | 3.13 (≈ 6.75 µM) |  | 
24 | CSc1c2sc(C3=C(C(=O)[O-])N4C(=O)[C@H]([C@@H](C)O)[C@H]4[C@H]3C)cn2c[n+]1CCS(=O)(=O)CCN | < 0.006 | 0.78 (≈ 1.52 µM) | 3.13 (≈ 6.08 µM) | > 500 | 
25 | CSc1c2sc(C3=C(C(=O)[O-])N4C(=O)[C@H]([C@@H](C)O)[C@H]4[C@H]3C)cn2c[n+]1[C@@H]1CN[C@H](CO)C1 | < 0.006 | 0.78 (≈ 1.63 µM) | 3.13 (≈ 6.54 µM) |  | 
